Source: patent publication US8846570B2, “Herbicidal compositions comprising 4-amino-3-chloro-5-fluoro-6-(4-chloro-2-fluoro-3-methoxyphenyl)pyridine-2-carboxylic acid or a derivative thereof and microtubule inhibiting herbicides” (Dow AgroSciences LLC, priority 2012, dated 2014)

Experiments:
Assay in all cases: In-water applied, transplanted paddy rice, greenhouse: visual weed control
Format in all cases: in vivo
[1] = test system: Cyperus rotundus L. (CYPRO)
Method: Weed seeds or nutlets of the desired test plant species were planted in puddled soil (mud) prepared by mixing a shredded, non-sterilized mineral soil (50.5 percent silt, 25.5 percent clay, and 24 percent sand, with a pH of about 7.6 and an organic matter content of about 2.9 percent) and water at a 1:1 volumetric ratio. The prepared mud was dispensed in 365 mL aliquots into 16-ounce (oz.) non-perforated plastic pots with a surface area of 86.59 square centimeters (cm^2) leaving a headspace of 3 centimeters (cm) in each pot. Mud was allowed to dry overnight prior to planting or transplanting. Rice seeds were planted in Sun Gro MetroMix® 306 planting mixture, which typically has a pH of 6.0 to 6.8 and an organic matter content of about 30 percent, in plastic plug trays. Seedlings at the second or third leaf stage of growth were transplanted into 860 mL of mud contained in 32-oz. non-perforated plastic pots with a surface area of 86.59 cm^2 4 days prior to herbicide application. The paddy was created by filling the headspace of the pots with 2.5 to 3 cm of water. […] Nutrients were added as Osmocote® (19:6:12, N:P:K+minor nutrients) at 2 g per 16.-oz. pot and 4 g per 32-oz. pot. Water was added on a regular basis to maintain the paddy flood, and supplemental lighting was provided with overhead metal halide 1000-Watt lamps as necessary. The plants were employed for testing when they reached the first through fourth true leaf stage.
Forms of compound A were applied on an acid equivalent basis.
(§1) For formulated compounds, a measured amount was placed in an individual 100 or 200 mL glass vial and was dissolved in a volume of 1.25% (v/v) Agri-Dex® crop oil concentrate to obtain application solutions.
(§2) For technical grade compounds, a weighed amount was placed in an individual 100 to 200 mL glass vial and was dissolved in a volume of acetone to obtain concentrated stock solutions. […] The concentrated stock solutions obtained were diluted with an equivalent volume of an aqueous mixture containing 2.5% (v/v) crop oil concentrate so that the final application solutions contained 1.25% (v/v) crop oil concentrate.
(§3) Applications were made by injecting, with a pipetter, appropriate amounts of the application solutions into the aqueous layer of the paddy. Control plants were treated in the same manner with the solvent blank. Applications were made so that all treated plant material received the same concentrations of acetone and crop oil concentrate.
(§4) The treated plants and control plants were placed in a greenhouse as described above and water was added as needed to maintain a paddy flood. After approximately 3 weeks the condition of the test plants as compared with that of the untreated plants was determined visually and scored on a scale of 0 to 100 percent where 0 corresponds to no injury or growth inhibition and 100 corresponds to complete kill.
Colby's equation was used to determine the herbicidal effects expected from the mixtures (Colby, S. R. 1967. Calculation of the synergistic and antagonistic response of herbicide combinations. Weeds 15:20-22.).
The following equation was used to calculate the expected activity of mixtures containing two active ingredients, A and B: Expected=A+B−(A×B/100)

[2] = test system: Echinochloa oryzoides (Ard.) Fritsch (ECHOR); conditions: 21 DAA
Method: (§5) Weed seeds or nutlets of the desired test plant species were planted in puddled soil (mud) prepared by mixing a shredded, non-sterilized mineral soil (50.5 percent silt, 25.5 percent clay, and 24 percent sand, with a pH of about 7.6 and an organic matter content of about 2.9 percent) and water at a 1:1 volumetric ratio. The prepared mud was dispensed in 365 mL aliquots into 16-ounce (oz.) non-perforated plastic pots with a surface area of 86.59 square centimeters (cm^2) leaving a headspace of 3 centimeters (cm) in each pot. Mud was allowed to dry overnight prior to planting or transplanting. Rice seeds were planted in Sun Gro MetroMix® 306 planting mixture, which typically has a pH of 6.0 to 6.8 and an organic matter content of about 30 percent, in plastic plug trays. Seedlings at the second or third leaf stage of growth were transplanted into 860 mL of mud contained in 32-oz. non-perforated plastic pots with a surface area of 86.59 cm^2 4 days prior to herbicide application. The paddy was created by filling the headspace of the pots with 2.5 to 3 cm of water. When required to ensure good germination and healthy plants, a fungicide treatment and/or other chemical or physical treatment was applied. The plants were grown for 4-22 days in a greenhouse with an approximate 14 h photoperiod which was maintained at about 29° C. during the day and 26° C. during the night. Nutrients were added as Osmocote® (19:6:12, N:P:K+minor nutrients) at 2 g per 16.-oz. pot and 4 g per 32-oz. pot. Water was added on a regular basis to maintain the paddy flood, and supplemental lighting was provided with overhead metal halide 1000-Watt lamps as necessary. The plants were employed for testing when they reached the first through fourth true leaf stage.
(§6) Treatments consisted of the acid or esters of 4-amino-3-chloro-5-fluoro-6-(4-chloro-2-fluoro-3-methoxy-phenyl)pyridine-2-carboxylic acid (compound A) each formulated as an SC and various herbicidal components alone and in combination. Forms of compound A were applied on an acid equivalent basis.
(§7) Treatment requirements for each compound or herbicidal component were calculated based upon the rates being tested, the concentration of active ingredient or acid equivalent in the formulation, an application volume of 2 mL per component per pot, and an application area of 86.59 cm^2 per pot.
as §1, §2, §3, §4
(§8) Colby's equation was used to determine the herbicidal effects expected from the mixtures (Colby, S. R. 1967. Calculation of the synergistic and antagonistic response of herbicide combinations. Weeds 15:20-22.). […]

[3] = test system: Schoenoplectus Maritimes (L.) Lye (SCPMA); conditions: 21 DAA
Method: as §5, §6, §7, §1, §2, §3, §4, §8

[4] = test system: Echinochloa crus-galli (L.) Beauv. (ECHCG); conditions: 21 DAA
Method: as §5, §6, §7, §1, §2, §3, §4, §8

[5] = test system: Leptochloa chinensis (L.) Nees (LEFCH); conditions: 21 DAA
Method: as §5, §6, §7, §1, §2, §3, §4, §8

Compound: COc1c(Cl)ccc(-c2nc(C(=O)O)c(Cl)c(N)c2F)c1F [Compound A Acid, 4-amino-3-chloro-6-(4-chloro-2-fluoro-3-methoxyphenyl)-5-fluoropyridine-2-carboxylic acid]
- Visual Weed Control (%) Obs ([1]; 20 DAA, 10.6 g ae/ha): 10%
- Visual Weed Control (%) Obs ([1]; 20 DAA, 21.2 g ae/ha): 20%
- Visual Weed Control (%) Obs ([2]; 8.75 g ae/ha): 10%
- Visual Weed Control (%) Obs ([2]; 17.5 g ae/ha): 40%
- Visual Weed Control (%) Obs ([2]; 35 g ae/ha): 40%
- Visual Weed Control (%) Obs ([3]; 8.75 g ae/ha): 0%
- Visual Weed Control (%) Obs ([3]; 17.5 g ae/ha): 0%
- Visual Weed Control (%) Obs ([3]; 35 g ae/ha): 0%
- Visual Weed Control (%) Obs ([4]; 8.75 g ae/ha): 0%
- Visual Weed Control (%) Obs ([4]; 17.5 g ae/ha): 0%
- Visual Weed Control (%) Obs ([4]; 35 g ae/ha): 20%
- Visual Weed Control (%) Obs ([5]; 8.75 g ae/ha): 0%
- Visual Weed Control (%) Obs ([5]; 17.5 g ae/ha): 0%
- Visual Weed Control (%) Obs ([5]; 35 g ae/ha): 30%

Compound: COc1c(Cl)ccc(-c2nc(C(=O)OCc3ccccc3)c(Cl)c(N)c2F)c1F [Compound A Benzyl Ester, benzyl ester of 4-amino-3-chloro-5-fluoro-6-(4-chloro-2-fluoro-3-methoxy-phenyl)pyridine-2-carboxylic acid]
- Visual Weed Control (%) Obs ([1]; 20 DAA, 4.38 g ae/ha): 50%
- Visual Weed Control (%) Obs ([1]; 20 DAA, 8.75 g ae/ha): 0%
- Visual Weed Control (%) Obs ([1]; 20 DAA, 17.5 g ae/ha): 90%
- Visual Weed Control (%) Obs ([1]; 21 DAA, 8.75 g ae/ha): 0%
- Visual Weed Control (%) Obs ([1]; 21 DAA, 17.5 g ae/ha): 0%
- Visual Weed Control (%) Obs ([2]; 4.38 g ae/ha): 40%
- Visual Weed Control (%) Obs ([2]; 8.75 g ae/ha): 60%
- Visual Weed Control (%) Obs ([2]; 17.5 g ae/ha): 75%
- Visual Weed Control (%) Obs ([3]; 4.38 g ae/ha): 0%
- Visual Weed Control (%) Obs ([3]; 8.75 g ae/ha): 0%
- Visual Weed Control (%) Obs ([3]; 17.5 g ae/ha): 0%
- Visual Weed Control (%) Obs ([4]; 4.38 g ae/ha): 0%
- Visual Weed Control (%) Obs ([4]; 8.75 g ae/ha): 0%
- Visual Weed Control (%) Obs ([4]; 17.5 g ae/ha): 25%
- Visual Weed Control (%) Obs ([5]; 35 g ae/ha): 50%
- Visual Weed Control (%) Obs ([5]; 70 g ae/ha): 50%

Compound: CSC(=O)c1c(C(F)F)nc(C(F)(F)F)c(C(=O)SC)c1CC(C)C [Dithiopyr, S,S′-dimethyl-2-(difluoromethyl)-4-(2-methylpropyl)-6-(trifluoromethyl)-3,5-pyridinedicarbothioate]
- Visual Weed Control (%) Obs ([2]; 70 g ai/ha): 30%
- Visual Weed Control (%) Obs ([3]; 70 g ai/ha): 0%

Compound: CCC(CC)Nc1c([N+](=O)[O-])cc(C)c(C)c1[N+](=O)[O-] [Pendimethalin, N-(1-ethylpropyl)-3,4-dimethyl-2,6-dinitrobenzenamine, reference compound]
- Visual Weed Control (%) Obs ([1]; 21 DAA, 280 g ai/ha): 0%
- Visual Weed Control (%) Obs ([1]; 21 DAA, 560 g ai/ha): 0%
- Visual Weed Control (%) Obs ([3]; 560 g ai/ha): 0%
- Visual Weed Control (%) Obs ([4]; 280 g ai/ha): 20%
- Visual Weed Control (%) Obs ([4]; 560 g ai/ha): 0%
- Visual Weed Control (%) Obs ([5]; 280 g ai/ha): 40%
- Visual Weed Control (%) Obs ([5]; 1120 g ai/ha): 48%
